Where a SMILES comes first, the peptide text is derived from it. [ ]: non-standard residue; d: D form. The star is where a group is joined. NHCH2CH2OH = OCCN*; For = O=C*

The values below come from article PMC7531004, “Discovery of gramicidin A analogues with altered activities by multidimensional screening of a one-bead-one-compound library” (Nature Communications, 2020).

In series [1] the test system is Streptococcus pyogenes SSI-9. Nature of the series: Antibacterial activity assay of bead-derived peptides (three concentrations). It is filed as cell-based. Also on record: key: +++: inhibition by the 640-fold diluted peptide solution; ++: inhibition by the 160-fold diluted solution; +: inhibition by the 40-fold diluted solution; -: no inhibition. The note with it: S. pyogenes, bead-derived peptide solution, three concentrations. In a few lines:
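Three stock dilutions per peptide (none, 4-fold, 16-fold in DMSO) are screened in 96-well format. The medium is blood-supplemented cation-adjusted MHB, inoculated with 2 × 10^5 CFU S. pyogenes SSI-9. Growth is read as cell precipitation at 18 h, 37 °C.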

Series [2] can be described thus: H+/Na+ transport assay of bead-derived peptides (one-point).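 Further: relative to parent gramicidin A activity set to 1.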 In kind it is biochemical. Also noted: key: relative activity; mean of two control wells = 1.00. The conditions noted are these: bead-derived peptide solution, EYPC/EYPG LUVs. In a few lines:
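H+/Na+ transport is monitored through pyranine fluorescence in freshly extruded LUVs after a 30-min room-temperature vortex with each library peptide at a single concentration. Signals are normalized to detergent (Triton X-100) and untreated controls.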

Series [3] deals with P388 mouse leukemia cells. The conditions noted are these: 92 h. In a few lines:
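First, library peptide stocks are diluted 250-fold in RPMI1640 with 10% heat-inactivated FBS. Next, they are mixed with P388 cells to give 1 × 10^4 cells/mL and incubated 92 h at 37 °C, 5% CO2. Finally, viability (%) is scored by WST-1 absorbance at 415 nm.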

Take `CC(C)C[C@@H](NC(=O)[C@H](Cc1c[nH]c2ccccc12)NC(=O)[C@H](NC(=O)[C@H](Cc1c[nH]c2ccccc12)NC(=O)[C@H](NC(=O)[C@@H](NC(=O)[C@H](NC(=O)[C@H](C)NC(=O)[C@H](NC(=O)[C@H](C)NC(=O)CNC(=O)[C@@H](NC=O)C(C)C)C(C)C)C(C)C)C(C)C)C(C)C)C(C)C)C(=O)N[C@@H](Cc1c[nH]c2ccccc12)C(=O)N[C@@H](C(=O)N[C@@H](Cc1c[nH]c2ccccc12)C(=O)NCCO)C(C)C` [compound 6165] (For-VGA[dV]A[dV]V[dV]W[dV]W[dL]W[dV]W-NHCH2CH2OH): the antibacterial activity result in series [1] is “-”. Further, in series [2], the “H+/Na+ transport activity normalized against the value of 1 (1.00)” value (“H+/Na+ transport activity normalized” for short) is recorded as 1.07. In series [3], this molecule came in with a cell viability/% of 67.9%.
In the same order, the values of `CC(C)C[C@@H](NC(=O)[C@H](C)NC(=O)CNC(=O)[C@@H](NC=O)C(C)C)C(=O)N[C@@H](C)C(=O)N[C@@H](C(=O)N[C@H](C(=O)N[C@@H](C(=O)N[C@@H](Cc1c[nH]c2ccccc12)C(=O)N[C@@H](C(=O)N[C@@H](Cc1c[nH]c2ccccc12)C(=O)N[C@H](CC(C)C)C(=O)N[C@@H](Cc1c[nH]c2ccccc12)C(=O)N[C@H](CC(C)C)C(=O)N[C@@H](Cc1c[nH]c2ccccc12)C(=O)NCCO)C(C)C)[C@H](C)O)C(C)C)C(C)C` [compound 6225] (For-VGA[dL]A[dV]V[dT]W[dV]W[dL]W[dL]W-NHCH2CH2OH) are “-”, 1.10 and 80.8%.
As for `CC(C)C[C@@H](NC(=O)[C@H](C)NC(=O)[C@H](NC(=O)[C@H](C)NC(=O)CNC(=O)[C@@H](NC=O)C(C)C)[C@H](C)O)C(=O)N[C@H](C(=O)N[C@H](CC(C)C)C(=O)N[C@@H](Cc1c[nH]c2ccccc12)C(=O)N[C@@H](C(=O)N[C@@H](Cc1c[nH]c2ccccc12)C(=O)N[C@H](CC(C)C)C(=O)N[C@@H](Cc1c[nH]c2ccccc12)C(=O)N[C@@H](C(=O)N[C@@H](Cc1c[nH]c2ccccc12)C(=O)NCCO)C(C)C)[C@H](C)O)C(C)C` [compound 6248] (For-VGA[dT]A[dL]V[dL]W[dT]W[dL]W[dV]W-NHCH2CH2OH), the antibacterial activity entry in series [1] is “-”. In addition, the “H+/Na+ transport activity normalized” value in series [2] is recorded as 1.10. The same molecule registered a cell viability/% in series [3] of 87.7%.
In the same order, the values of `CC(C)C[C@@H](NC(=O)[C@H](C)NC(=O)CNC(=O)[C@@H](NC=O)C(C)C)C(=O)N[C@@H](C)C(=O)N[C@@H](C(=O)N[C@H](C(=O)N[C@@H](C(=O)N[C@@H](Cc1c[nH]c2ccccc12)C(=O)N[C@H](CC(C)C)C(=O)N[C@@H](Cc1c[nH]c2ccccc12)C(=O)N[C@H](CC(C)C)C(=O)N[C@@H](Cc1c[nH]c2ccccc12)C(=O)N[C@H](CC(C)C)C(=O)N[C@@H](Cc1c[nH]c2ccccc12)C(=O)NCCO)C(C)C)C(C)C)C(C)C` [compound 6292] (For-VGA[dL]A[dV]V[dV]W[dL]W[dL]W[dL]W-NHCH2CH2OH) are “++”, 1.25 and 5.4%.
In the same order, the values of `CNC(=O)C[C@@H](NC(=O)[C@H](Cc1c[nH]c2ccccc12)NC(=O)[C@@H](CC(C)C)NC(=O)[C@H](Cc1c[nH]c2ccccc12)NC(=O)[C@H](NC(=O)[C@H](Cc1c[nH]c2ccccc12)NC(=O)[C@H](NC(=O)[C@@H](NC(=O)[C@@H](CC(C)C)NC(=O)[C@H](C)NC(=O)[C@H](NC(=O)[C@H](C)NC(=O)CNC(=O)[C@@H](NC=O)C(C)C)C(C)C)C(C)C)C(C)C)C(C)C)C(=O)N[C@@H](Cc1c[nH]c2ccccc12)C(=O)NCCO` [compound 6329] (For-VGA[dV]A[dL]V[dV]W[dV]W[dL]W[dD](NHMe)W-NHCH2CH2OH) are “-”, 1.03 and 43.5%.
In the same order, the values of `CNC(=O)C[C@@H](NC(=O)[C@@H](NC(=O)[C@@H](CC(C)C)NC(=O)[C@H](C)NC(=O)[C@H](NC(=O)[C@H](C)NC(=O)CNC(=O)[C@@H](NC=O)C(C)C)C(C)C)C(C)C)C(=O)N[C@@H](Cc1c[nH]c2ccccc12)C(=O)N[C@H](CC(C)C)C(=O)N[C@@H](Cc1c[nH]c2ccccc12)C(=O)N[C@H](CC(C)C)C(=O)N[C@@H](Cc1c[nH]c2ccccc12)C(=O)N[C@@H](C(=O)N[C@@H](Cc1c[nH]c2ccccc12)C(=O)NCCO)C(C)C` [compound 6360] (For-VGA[dV]A[dL]V[dD](NHMe)W[dL]W[dL]W[dV]W-NHCH2CH2OH) are “-”, 1.03 and 67.2%.
Turning to `CNC(=O)C[C@@H](NC(=O)[C@@H](NC(=O)[C@H](NC(=O)[C@H](C)NC(=O)[C@H](NC(=O)[C@H](C)NC(=O)CNC(=O)[C@@H](NC=O)C(C)C)C(C)C)C(C)C)C(C)C)C(=O)N[C@@H](Cc1c[nH]c2ccccc12)C(=O)N[C@H](CC(C)C)C(=O)N[C@@H](Cc1c[nH]c2ccccc12)C(=O)N[C@H](CC(C)C)C(=O)N[C@@H](Cc1c[nH]c2ccccc12)C(=O)N[C@@H](C(=O)N[C@@H](Cc1c[nH]c2ccccc12)C(=O)NCCO)C(C)C` [compound 6510] (For-VGA[dV]A[dV]V[dD](NHMe)W[dL]W[dL]W[dV]W-NHCH2CH2OH), the antibacterial activity entry in series [1] is reported as “-”. For the same molecule, the “H+/Na+ transport activity normalized” value in series [2] is 1.36. In addition, the cell viability/% in series [3] came to 100.0%.
On to `CNC(=O)C[C@@H](NC(=O)[C@H](Cc1c[nH]c2ccccc12)NC(=O)[C@H](NC(=O)[C@H](Cc1c[nH]c2ccccc12)NC(=O)[C@H](NC(=O)[C@H](Cc1c[nH]c2ccccc12)NC(=O)[C@@H](CC(C)C)NC(=O)[C@@H](NC(=O)[C@H](NC(=O)[C@H](C)NC(=O)[C@@H](CC(C)C)NC(=O)[C@H](C)NC(=O)CNC(=O)[C@@H](NC=O)C(C)C)C(C)C)C(C)C)C(C)C)C(C)C)C(=O)N[C@@H](Cc1c[nH]c2ccccc12)C(=O)NCCO` [compound 6520] (For-VGA[dL]A[dV]V[dL]W[dV]W[dV]W[dD](NHMe)W-NHCH2CH2OH), for which the antibacterial activity entry in series [1] is “-”. Besides, in series [2], the “H+/Na+ transport activity normalized” value amounted to 1.08. Moreover, the cell viability/% in series [3] is on record as 100.0%.
In the same order, the values of `CC(C)C[C@@H](NC(=O)[C@H](C)NC(=O)[C@H](NC(=O)[C@H](C)NC(=O)CNC(=O)[C@@H](NC=O)C(C)C)C(C)C)C(=O)N[C@H](C(=O)N[C@H](CC(C)C)C(=O)N[C@@H](Cc1c[nH]c2ccccc12)C(=O)N[C@@H](C(=O)N[C@@H](Cc1c[nH]c2ccccc12)C(=O)N[C@@H](C(=O)N[C@@H](Cc1c[nH]c2ccccc12)C(=O)N[C@H](CC(C)C)C(=O)N[C@@H](Cc1c[nH]c2ccccc12)C(=O)NCCO)C(C)C)[C@H](C)O)C(C)C` [compound 6572] (For-VGA[dV]A[dL]V[dL]W[dT]W[dV]W[dL]W-NHCH2CH2OH) are “-”, 1.09 and 100.0%.
Regarding `CC(C)C[C@@H](NC(=O)[C@H](C)NC(=O)CNC(=O)[C@@H](NC=O)C(C)C)C(=O)N[C@@H](C)C(=O)N[C@H](CC(C)C)C(=O)N[C@H](C(=O)N[C@H](CC(C)C)C(=O)N[C@@H](Cc1c[nH]c2ccccc12)C(=O)N[C@H](CC(C)C)C(=O)N[C@@H](Cc1c[nH]c2ccccc12)C(=O)N[C@H](CC(C)C)C(=O)N[C@@H](Cc1c[nH]c2ccccc12)C(=O)N[C@@H](C(=O)N[C@@H](Cc1c[nH]c2ccccc12)C(=O)NCCO)C(C)C)C(C)C` [compound 6639] (For-VGA[dL]A[dL]V[dL]W[dL]W[dL]W[dV]W-NHCH2CH2OH), the antibacterial activity result in series [1] is reported as “+”. Also, the “H+/Na+ transport activity normalized” value in series [2] was determined as 1.01. The cell viability/% in series [3] amounted to 0.0%.
Take `CC(C)C[C@@H](NC(=O)[C@H](C)NC(=O)CNC(=O)[C@@H](NC=O)C(C)C)C(=O)N[C@@H](C)C(=O)N[C@@H](C(=O)N[C@H](C(=O)N[C@@H](C(=O)N[C@@H](Cc1c[nH]c2ccccc12)C(=O)N[C@H](CC(C)C)C(=O)N[C@@H](Cc1c[nH]c2ccccc12)C(=O)N[C@H](CC(C)C)C(=O)N[C@@H](Cc1c[nH]c2ccccc12)C(=O)N[C@@H](C(=O)N[C@@H](Cc1c[nH]c2ccccc12)C(=O)NCCO)C(C)C)[C@H](C)O)C(C)C)C(C)C` [compound 6702] (For-VGA[dL]A[dV]V[dT]W[dL]W[dL]W[dV]W-NHCH2CH2OH): the antibacterial activity entry in series [1] is “+”. In series [2], the “H+/Na+ transport activity normalized” value was found to be 1.03. Further, the cell viability/% in series [3] was 100.0%.
In the same order, the values of `CNC(=O)C[C@@H](NC(=O)[C@@H](NC(=O)[C@@H](CC(C)C)NC(=O)[C@H](C)NC(=O)[C@@H](CC(C)C)NC(=O)[C@H](C)NC(=O)CNC(=O)[C@@H](NC=O)C(C)C)C(C)C)C(=O)N[C@@H](Cc1c[nH]c2ccccc12)C(=O)N[C@@H](C(=O)N[C@@H](Cc1c[nH]c2ccccc12)C(=O)N[C@H](CC(C)C)C(=O)N[C@@H](Cc1c[nH]c2ccccc12)C(=O)N[C@H](CC(C)C)C(=O)N[C@@H](Cc1c[nH]c2ccccc12)C(=O)NCCO)C(C)C` [compound 6703] (For-VGA[dL]A[dL]V[dD](NHMe)W[dV]W[dL]W[dL]W-NHCH2CH2OH) are “-”, 1.17 and 100.0%.
